Source: US20130158132A1, “Formulation Solution Adapted To Prolong Plasma Times Of Drugs In Mammals Including Humans” (priority 2011, published 2013)
Values belong to the compound of their own block, whether it stands above or below them.

Tests used:
[1] = Decoquinate concentration in mouse plasma and liver, with and without prolongation solution; type: in vivo; set-up: concentration of the drug in plasma / concentration of the drug in liver: unit not given here; conditions: mice; for concentration of the drug in liver / concentration of the drug in plasma: 0.5 ml injected
Description: (§1) The following examples used laboratory rats and mice.
Decoquinate solution was mixed with two solutions: one with the prolongation solution of Example 1 and one without the prolongation solution. Each solution contained an identical and normal dosage of the drug. In both cases, 0.5 ml of solution was injected into mice of approximately identical weight. The concentration of the drug in plasma and liver was chected by high performance then layer chromatography in mouse liver and plasma.

[2] = Glipizide serum level in rats after one-time administration; type: in vivo; conditions: rat, other: injected, about 0.25 mg in 3 ml prolongation solution of Example 1, injected
Description: as §1
Serum testing was conducted after one-time initial administration.

[3] = single 5 mg dose; cited from earlier work
[4] = after 24 hours; cited from earlier work
in vivo = conditions: rat, Quinine serum level
[5] = rat, in vivo, 24 h
[6] = Rifampicin serum level in rats after one-time administration; type: in vivo; conditions: for concentration at 14 h / concentration at 32 h: serum
Description: as §1
Serum testing was conducted after one-time initial administration to rats. The Rifampicin level remained:
Control test using water alone on 8 mg/rat. […] Thus, the prolongation solution is effective at reduced drug administration levels.

[7] = human, single 600 mg dose; cited from earlier work
[8] = single 2.0 gram dose, cited from earlier work
[9] = NE-No Prolongation Solution, 0.5 hours
[10] = NE-No Prolongation Solution, 1 hour
[11] = NE-No Prolongation Solution, 2 hours
[12] = NE-No Prolongation Solution, 4 hours
[13] = NE-No Prolongation Solution, 8 hours
[14] = NE-No Prolongation Solution, 24 hours
[15] = PF-Prolongation Solution of Example 1, 0.5 hours
[16] = PF-Prolongation Solution of Example 1, 1 hour
[17] = PF-Prolongation Solution of Example 1, 2 hours
[18] = PF-Prolongation Solution of Example 1, 4 hours
[19] = PF-Prolongation Solution of Example 1, 8 hours
[20] = PF-Prolongation Solution of Example 1, 24 hours
[21] = rat, about 18 mg in 3 ml prolongation solution of Example 1, one-time administration
[22] = about 8 mg/rat with prolongation solution

- concentration of the drug in liver [1, 9]: 313860
- concentration of the drug in plasma [1, 9]: 25565
- concentration of the drug in liver [1, 10]: 430820
- concentration of the drug in plasma [1, 10]: 49911
- concentration of the drug in liver [1, 11]: 317950
- concentration of the drug in plasma [1, 11]: 43941
- concentration of the drug in liver [1, 12]: 323180
- concentration of the drug in plasma [1, 12]: 35427
- concentration of the drug in liver [1, 13]: 177470
- concentration of the drug in plasma [1, 13]: 25131
- concentration of the drug in liver [1, 14]: 7014
- concentration of the drug in plasma [1, 14]: 697
- concentration of the drug in liver [1, 15]: 149675
- concentration of the drug in plasma [1, 15]: 15213
- concentration of the drug in liver [1, 16]: 223565
- concentration of the drug in plasma [1, 16]: 24638
- concentration of the drug in liver [1, 17]: 191725
- concentration of the drug in plasma [1, 17]: 27350
- concentration of the drug in liver [1, 18]: 219615
- concentration of the drug in plasma [1, 18]: 29213
- concentration of the drug in liver [1, 19]: 181015
- concentration of the drug in plasma [1, 19]: 27882
- concentration of the drug in liver [1, 20]: 5549
- concentration of the drug in plasma [1, 20]: 457
- drop of Decoquinate level between 1 and 8 hours in plasma ([1]; no prolongation solution): 50%
- drop of Decoquinate level between 1 and 8 hours in liver ([1]; no prolongation solution, compared with the 50% drop in plasma): almost as much
- change in the level of Decoquinate between 1 and 8 hours ([1]; prolongation solution used): relatively little change
- change of concentration of drug in plasma and liver for eight hours ([1]; using the prolongation solution, compared to control): did not change
Structure (SMILES): CCCCCCCCCCOc1cc2c(O)c(C(=O)OCC)cnc2cc1OCC [Decoquinate]

- concentration at 26 h ([2]; 26 hours): 570 ng/mL
- concentration at 52 h ([2]; 52 hours): 1400 ng/mL
Structure (SMILES): Cc1cnc(C(=O)NCCc2ccc(S(=O)(=O)NC(=O)NC3CCCCC3)cc2)cn1 [Glipizide]
- Peak serum level of glipizide [3]: 0.1 to 0.5 µg/mL
- time of peak serum level post dose [3]: 1.6 h

- concentration at 45 min (in vivo): 4600 ng/mL
- concentration at 4 h (in vivo): 3000 ng/mL
- concentration at 9 h (in vivo): 1800 ng/mL
- concentration at 13 h (in vivo): 1600 ng/mL
- concentration at 15 h (in vivo): 2100 ng/mL
- concentration at 16 h (in vivo): 230 ng/mL
- concentration at 24 h (in vivo): 1400 ng/mL
- Quinine serum level [5]: 2400 ng/mL
Structure (SMILES): C=C[C@H]1C[N@@]2CC[C@H]1C[C@H]2[C@H](O)c1ccnc2ccc(OC)cc12 [Quinine]
- plasma level after termination of quinine therapy [4]: barely detectable

- Rifampicin serum level ([6]; control using water alone, 8 mg/rat, after 14 hours): not being detected
- concentration at 14 h [6, 21]: 19000 ng/mL
- concentration at 32 h [6, 21]: 3500 ng/mL
- concentration at 14 h [6, 22]: 14000 ng/mL
- concentration at 32 h [6, 22]: 8500 ng/mL
Structure (SMILES): CO[C@H]1/C=C/O[C@@]2(C)Oc3c(C)c(O)c4c(O)c(c(/C=N/N5CCN(C)CC5)c(O)c4c3C2=O)NC(=O)/C(C)=C\C=C\[C@H](C)[C@H](O)[C@@H](C)[C@@H](O)[C@@H](C)[C@H](OC(C)=O)[C@@H]1C [Rifampicin]
- Peak plasma levels of Rifampicin [7]: 3 to 13 µg/mL
- time of peak plasma level post dose [7]: approximately 1.8 hours

Structure (SMILES): Cc1noc(NS(=O)(=O)c2ccc(N)cc2)c1C [sulfisoxazole]
- mean time of peak plasma concentration [8]: 2.5 h
- original dose excreted in the urine ([8]; within 48 hours): About 97%
